In patent publication US4195171A, “Derivatives of an antibiotic XK-62-2 and process for the production thereof” (Abbott Laboratories, priority 1975, dated 1980):
Converted amounts (≈) assume the structure as drawn. Where two headings read alike, the source gives them in different places.

Key:
Assay in all cases: Antibacterial spectrum, MIC by agar dilution method
Format in all cases: cell-based
[1] = system: Pseudomonas aeruginosa KY 8510
Source text: (§1) XK-62-2, 1-N-[L-(-)-α-hydroxy-γ-aminobutyryl] XK-62-2, Compounds (I-1), (I-2), (II-1) and (II-2) against various Gram-negative and Gram-positive bacteria determined by agar dilution method at pH 7.2.
(§2) ^1 produces kanamycin acetyltransferase

[2] = system: Escherichia coli KY Z-343; settings: KYZ343, pH 7.2, strain produces kanamycin acetyltransferase, read-out: Minimum Inhibitory Concentration
Source text: as §1, §2

[3] = system: Pseudomonas aeruginosa KY 8516
Source text: as §1, §2

[4] = system: Serratia marcescens POE 1065
Source text: as §1, §2

[5] = system: Escherichia coli KY Z-338; settings: KYZ338, pH 7.2, strain produces gentamicin adenyltransferase, read-out: Minimum Inhibitory Concentration
Source text: as §1
(§3) ^4 produces gentamicin adenyltransferase

[6] = system: Klebsiella pneumoniae Y-58; settings: Y58, pH 7.2, strain produces gentamicin adenyltransferase, read-out: Minimum Inhibitory Concentration
Source text: as §1, §3

[7] = system: Klebsiella pneumoniae Y-60; settings: Y60, pH 7.2, strain produces gentamicin adenyltransferase, read-out: Minimum Inhibitory Concentration
Source text: as §1, §3

Escherichia coli KY 8348 = settings: KY8348, pH 7.2, strain produces gentamicin acetyltransferase Type I, read-out: Minimum Inhibitory Concentration
Source text: as §1
(§4) ^2 produces gentamicin acetyltransferase Type I

[8] = system: Pseudomonas aeruginosa KY 8511; settings: KY8511, pH 7.2, strain produces gentamicin acetyltransferase Type I, read-out: Minimum Inhibitory Concentration
Source text: as §1, §4

[9] = system: Pseudomonas aeruginosa Z-445; settings: Z445, pH 7.2, strain produces 6N-acetyltransferase Type III, read-out: Minimum Inhibitory Concentration
Source text: as §1
(§5) ^8 produces 6N-acetyltransferase Type III

[10] = system: Pseudomonas aeruginosa KY Z-444
Source text: as §1, §5

[11] = system: Salmonella enteritidis G-14; settings: Salmonella enterica, pH 7.2, read-out: Minimum Inhibitory Concentration
Source text: as §1

[12] = system: Pseudomonas aeruginosa BMH 10; settings: BMH10, pH 7.2, read-out: Minimum Inhibitory Concentration
Source text: as §1

Escherichia coli Juhl = settings: pH 7.2, read-out: Minimum Inhibitory Concentration
Source text: as §1

[13] = system: bacillus subtilis ATCC 6633; settings: ATCC6633, pH 7.2, read-out: Minimum Inhibitory Concentration
Source text: as §1

[14] = system: Staphylococcus aureus Smith; settings: pH 7.2, read-out: Minimum Inhibitory Concentration
Source text: as §1

[15] = system: Pseudomonas aeruginosa NC-5; settings: NC5, pH 7.2, read-out: Minimum Inhibitory Concentration
Source text: as §1

[16] = system: Shigella sonnei ATCC 9290; settings: ATCC9290, pH 7.2, read-out: Minimum Inhibitory Concentration
Source text: as §1

Escherichia coli T-5 = system: Escherichia coli T-5
Source text: as §1

Proteus vulgaris 6897 = settings: pH 7.2, read-out: Minimum Inhibitory Concentration
Source text: as §1

Serratia sp T-55 = settings: T55, agar dilution, pH 7.2, read-out: Minimum Inhibitory Concentration
Source text: as §1

Sarcina lutea ATCC 9341 = settings: Micrococcus luteus, ATCC9341, pH 7.2, read-out: Minimum Inhibitory Concentration
Source text: as §1

Proteus morganii KY 4298 = settings: Morganella morganii
Source text: as §1

[17] = system: Staphylococcus aureus 209 P; settings: pH 7.2, read-out: Minimum Inhibitory Concentration
Source text: as §1

[18] = system: Klebsiella pneumoniae No. 8045; settings: pH 7.2, read-out: Minimum Inhibitory Concentration
Source text: as §1

Proteus rettgeri KY 4288 = settings: Providencia rettgeri, KY4288, pH 7.2, read-out: Minimum Inhibitory Concentration
Source text: as §1

Proteus mirabilis 1287 = settings: pH 7.2, read-out: Minimum Inhibitory Concentration
Source text: as §1

[19] = system: Salmonella typhimurium E-9; settings: Salmonella enterica, pH 7.2, read-out: Minimum Inhibitory Concentration
Source text: as §1

Escherichia coli T-2 = settings: T2, pH 7.2, read-out: Minimum Inhibitory Concentration
Source text: as §1

[20] = system: Streptococcus faecalis ATCC 10541; settings: Enterococcus faecalis, ATCC10541, pH 7.2, read-out: Minimum Inhibitory Concentration
Source text: as §1

[21] = system: Pseudomonas aeruginosa No. 12; settings: pH 7.2, read-out: Minimum Inhibitory Concentration
Source text: as §1

[22] = system: Pseudomonas aeruginosa E-2; settings: E2, pH 7.2, read-out: Minimum Inhibitory Concentration
Source text: as §1

[23] = system: Pseudomonas aeruginosa BMH 1; settings: BMH1, pH 7.2, read-out: Minimum Inhibitory Concentration
Source text: as §1

Row | Structure (SMILES) | MIC [2] | MIC [5] | MIC [6] | MIC [7] | MIC (Escherichia coli KY 8348) | MIC [8] | MIC [9] | MIC [12] | MIC (Escherichia coli Juhl) | MIC [13] | MIC [14] | MIC [15] | MIC [16] | MIC (Proteus vulgaris 6897) | MIC (Serratia sp T-55) | MIC (Sarcina lutea ATCC 9341) | MIC [17] | MIC [18] | MIC (Proteus rettgeri KY 4288) | MIC (Proteus mirabilis 1287) | further results
1 | CC1(O)COC(OC2C(NC(=O)C(O)CCN)CC(N)C(OC3OC(CN)CCC3N)C2O)C(O)C1N (single isomer, unassigned) [Compound I-2, 3"-N, 6'-N-didemethyl-1-N-[L-(-)-α-hydroxy-γ-aminobutyryl] XK-62-2] | 0.2 µg/mL (≈ 0.373 µM) | 0.4 µg/mL (≈ 0.745 µM) | 0.78 µg/mL (≈ 1.45 µM) | 0.78 µg/mL (≈ 1.45 µM) | 0.4 µg/mL (≈ 0.745 µM) | 0.78 µg/mL (≈ 1.45 µM) | 6.25 µg/mL (≈ 11.6 µM) | 0.4 µg/mL (≈ 0.745 µM) | 1.56 µg/mL (≈ 2.91 µM) | 0.1 µg/mL (≈ 0.186 µM) | 0.2 µg/mL (≈ 0.373 µM) | 1.56 µg/mL (≈ 2.91 µM) | 1.56 µg/mL (≈ 2.91 µM) | 3.12 µg/mL (≈ 5.81 µM) | 3.12 µg/mL (≈ 5.81 µM) | 0.78 µg/mL (≈ 1.45 µM) | 0.2 µg/mL (≈ 0.373 µM) | 0.78 µg/mL (≈ 1.45 µM) | 0.78 µg/mL (≈ 1.45 µM) | 12.5 µg/mL (≈ 23.3 µM) | MIC ([1]; KY8510, agar dilution, pH 7.2, strain produces kanamycin acetyltransferase, read-out: Minimum Inhibitory Concentration): 12.5 µg/mL (≈ 23.3 µM); MIC ([3]; KY8516, agar dilution, pH 7.2, strain produces kanamycin acetyltransferase, read-out: Minimum Inhibitory Concentration): 25 µg/mL (≈ 46.6 µM); MIC ([4]; POE1065, agar dilution, pH 7.2, strain produces kanamycin acetyltransferase, read-out: Minimum Inhibitory Concentration): 25 µg/mL (≈ 46.6 µM); MIC ([10]; KYZ444, pH 7.2, read-out: Minimum Inhibitory Concentration): 1.56 µg/mL (≈ 2.91 µM); MIC ([11]; agar dilution): 12.5 µg/mL (≈ 23.3 µM); MIC (Escherichia coli T-5; T5, pH 7.2, read-out: Minimum Inhibitory Concentration): 1.56 µg/mL (≈ 2.91 µM); MIC (Proteus morganii KY 4298; KY4298, agar dilution, pH 7.2, read-out: Minimum Inhibitory Concentration): 0.78 µg/mL (≈ 1.45 µM); MIC [19]: 0.4 µg/mL (≈ 0.745 µM); MIC (Escherichia coli T-2): 0.78 µg/mL (≈ 1.45 µM); MIC [20]: 12.5 µg/mL (≈ 23.3 µM); MIC [21]: 0.4 µg/mL (≈ 0.745 µM); MIC [22]: 1.56 µg/mL (≈ 2.91 µM); MIC [23]: 0.78 µg/mL (≈ 1.45 µM)
2 | CNCC1CCC(N)C(OC2C(N)CC(NC(=O)C(O)CN)C(OC3OCC(C)(O)C(N)C3O)C2O)O1 (racemic) [II-1, 3"-N-demethyl-1-N-(DL-α-hydroxy-β-aminopropionyl) XK-62-2] | 0.4 µg/mL (≈ 0.745 µM) | 0.78 µg/mL (≈ 1.45 µM) | 0.78 µg/mL (≈ 1.45 µM) | 1.56 µg/mL (≈ 2.91 µM) | 0.4 µg/mL (≈ 0.745 µM) | 1.56 µg/mL (≈ 2.91 µM) | 6.25 µg/mL (≈ 11.6 µM) | 0.4 µg/mL (≈ 0.745 µM) | 3.12 µg/mL (≈ 5.81 µM) | 0.2 µg/mL (≈ 0.373 µM) | 0.4 µg/mL (≈ 0.745 µM) | 3.12 µg/mL (≈ 5.81 µM) | 3.12 µg/mL (≈ 5.81 µM) | 12.5 µg/mL (≈ 23.3 µM) | 1.56 µg/mL (≈ 2.91 µM) | 1.56 µg/mL (≈ 2.91 µM) | 0.4 µg/mL (≈ 0.745 µM) | 0.78 µg/mL (≈ 1.45 µM) | 1.56 µg/mL (≈ 2.91 µM) | 25 µg/mL (≈ 46.6 µM) | MIC ([1]; KY8510, pH 7.2, read-out: Minimum Inhibitory Concentration): 3.12 µg/mL (≈ 5.81 µM); MIC ([3]; KY8516, pH 7.2, read-out: Minimum Inhibitory Concentration): 3.12 µg/mL (≈ 5.81 µM); MIC ([4]; POE1065, pH 7.2, read-out: Minimum Inhibitory Concentration): 3.12 µg/mL (≈ 5.81 µM); MIC ([10]; KYZ444, agar dilution, pH 7.2, strain produces 6N-acetyltransferase Type III, read-out: Minimum Inhibitory Concentration): 1.56 µg/mL (≈ 2.91 µM); MIC [11]: 3.12 µg/mL (≈ 5.81 µM); MIC (Escherichia coli T-5; T5, agar dilution, pH 7.2, read-out: Minimum Inhibitory Concentration): 1.56 µg/mL (≈ 2.91 µM); MIC (Proteus morganii KY 4298; KY4298, pH 7.2, read-out: Minimum Inhibitory Concentration): 3.12 µg/mL (≈ 5.81 µM); MIC [19]: 0.78 µg/mL (≈ 1.45 µM); MIC (Escherichia coli T-2): 1.56 µg/mL (≈ 2.91 µM); MIC [20]: 25 µg/mL (≈ 46.6 µM); MIC [21]: 0.78 µg/mL (≈ 1.45 µM); MIC [22]: 3.12 µg/mL (≈ 5.81 µM); MIC [23]: 1.56 µg/mL (≈ 2.91 µM)
